The record followed here is patent publication US20250326732A1 (Pretzel Therapeutics, Inc., priority 2021, published 2025).

This assay has as its target POLRMT (Homo sapiens (Human), UniProt O00411). Description: homogeneous TR-FRET assay of mitochondrial transcription (inhibition of POLRMT). Format: biochemical. Conditions: 7.5 nM POLRMT, 15 nM TFB2M, 30 nM TFAM, 0.5 nM DNA template, 500 μM NTPs, 37° C. for 60 minutes. As to the method:
The ability of some compounds of the present invention to inhibit POLRMT were determined in a homogeneous TR-FRET Assay using high-throughput screening in a 384-well plate format. […] Detection of the product is facilitated by hybridization of two DNA-oligonucleotide probes to specific and adjacent sequences within the RNA product sequence. Upon annealing of the probes, two fluorophores are coupled directly to an acceptor nucleotide probe (ATTO647, 5′), or introduced via a coupled streptavidin with a biotinylated donor nucleotide probe (Europium cryptate) that is brought into sufficient proximity to serve as a fluorescence-donor-acceptor pair. Thus, a FRET signal at 665 nm is generated upon excitation at 340 nm.
The DNA template is restriction linearized proximal to the promotor 3′-end (pUC-LSP). […] No nucleotide triphosphate mix is added to negative control samples. Microplates with compounds to be tested in the assay are prepared from 10 mM compound stocks in 100% DMSO, equal amounts of DMSO without any compound are added to positive control and negative control samples.
During the incubation, a mix of the detection reagents is prepared in a buffer such that the enzymatic reaction is terminated due to chelating of Mg-ions and increased ionic strength, containing 50 mM Tris-HCl (pH 7.5), 700 mM NaCl, 20 mM EDTA, and 0.01% (w/v) Tween-20. Europium-streptavidin is pre-incubated with a 200-fold molar excess of a random sequence oligonucleotide to block unspecific binding of oligo, for two hours at ambient temperature in the dark. Afterwards, the blocked Europium-streptavidin is kept on ice until use.
At the end of the enzymatic reaction time, 5 μL detection oligo mix in the detection buffer is added, and assay plates are mixed and kept at ambient temperature for one hour, protected from light. The concentration of the Acceptor nucleotide oligo (e.g., ATTO647N-5′-[…]-3′) and Donor nucleotide oligo (e.g., bio-5′-[…](-bio)[…]-bio-3′) in each assay well is 1 nM, and 3 nM, respectively.
After incubation with oligo mix, 5 μL of pre-blocked Europium-streptavidin reagent is dispensed to each assay well, assay plates are again mixed and kept at ambient temperature for one hour, protected from light.
The generated signal is measured with BMG Pherastar microtiter plate reader with a TRF light unit, using excitation at 340 nm, an integration time of 200 μs, and a delay time of 100 μs, before detection at 620 nm and 665 nm. The ratio of donor- and acceptor-fluorescence is used as a measure of the generated transcript product (i.e. enzymatic activity).
(Time-resolved FRET reads energy transfer from a long-lived donor to a nearby acceptor.)

Sequence of POLRMT (O00411 42-1230): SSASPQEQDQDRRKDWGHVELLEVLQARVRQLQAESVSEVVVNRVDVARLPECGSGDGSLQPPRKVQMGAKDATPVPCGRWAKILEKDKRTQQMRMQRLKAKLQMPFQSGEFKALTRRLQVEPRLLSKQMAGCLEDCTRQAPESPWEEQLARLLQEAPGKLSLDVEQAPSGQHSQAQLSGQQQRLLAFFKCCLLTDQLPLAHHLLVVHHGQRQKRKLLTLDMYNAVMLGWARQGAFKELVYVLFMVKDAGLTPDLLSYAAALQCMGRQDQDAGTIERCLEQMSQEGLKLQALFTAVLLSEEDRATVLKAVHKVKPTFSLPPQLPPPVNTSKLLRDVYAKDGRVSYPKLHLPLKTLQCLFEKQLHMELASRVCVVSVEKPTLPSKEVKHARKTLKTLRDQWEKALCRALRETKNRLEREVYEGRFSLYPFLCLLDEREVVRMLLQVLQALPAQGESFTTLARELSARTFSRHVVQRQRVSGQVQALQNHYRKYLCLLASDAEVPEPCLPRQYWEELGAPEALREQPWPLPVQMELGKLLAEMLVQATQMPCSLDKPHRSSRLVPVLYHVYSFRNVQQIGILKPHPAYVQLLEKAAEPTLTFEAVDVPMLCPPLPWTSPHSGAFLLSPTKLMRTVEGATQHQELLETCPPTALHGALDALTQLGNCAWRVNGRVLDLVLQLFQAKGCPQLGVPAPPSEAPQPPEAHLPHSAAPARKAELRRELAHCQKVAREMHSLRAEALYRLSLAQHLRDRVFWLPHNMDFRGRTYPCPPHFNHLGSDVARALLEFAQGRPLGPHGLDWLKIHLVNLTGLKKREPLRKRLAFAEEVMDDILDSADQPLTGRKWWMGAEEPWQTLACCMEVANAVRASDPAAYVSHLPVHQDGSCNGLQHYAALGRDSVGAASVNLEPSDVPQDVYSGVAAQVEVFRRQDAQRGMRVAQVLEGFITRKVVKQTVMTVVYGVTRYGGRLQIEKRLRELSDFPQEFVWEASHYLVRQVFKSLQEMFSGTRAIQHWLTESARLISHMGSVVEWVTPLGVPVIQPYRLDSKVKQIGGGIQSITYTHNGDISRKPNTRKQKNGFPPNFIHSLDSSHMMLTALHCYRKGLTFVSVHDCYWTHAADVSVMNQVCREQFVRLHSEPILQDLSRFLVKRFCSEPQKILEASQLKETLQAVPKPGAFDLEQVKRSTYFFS

Consider `C[C@H](Cc1ccc2c(-c3ccc(F)cc3Cl)cc(=O)oc2c1)C(=O)N(C)C` [Example 21, (R)-3-(4-(2-chloro-4-fluorophenyl)-2-oxo-2H-chromen-7-yl)-N,N,2-trimethylpropanamide], for which the IC50 (usually the concentration that inhibits the measured activity by half) was determined as 49000 nM.

`CCCNC(=O)c1ccc2c(-c3ccc(F)cc3Cl)cc(=O)oc2c1` [Example 22, 4-(2-chloro-4-fluorophenyl)-2-oxo-N-propyl-2H-chromene-7-carboxamide] returned an IC50 of 25000 nM.

`CCN(C)C(=O)c1ccc2c(-c3ccc(F)cc3Cl)cc(=O)oc2c1` [Example 23, 4-(2-chloro-4-fluorophenyl)-N-ethyl-N-methyl-2-oxo-2H-chromene-7-carboxamide]: the IC50 is 19000 nM.

In the case of `CNc1ccc2c(-c3ccc(F)cc3Cl)cc(=O)oc2c1` [Example 25, 4-(2-chloro-4-fluorophenyl)-7-(methylamino)-2H-chromen-2-one], inhibition was half-maximal at 400 nM (IC50).

In the case of `CCOC(=O)[C@@H](C)Nc1ccc2c(-c3ccc(F)cc3Cl)cc(=O)oc2c1` [Example 26, ethyl (4-(2-chloro-4-fluorophenyl)-2-oxo-2H-chromen-7-yl)-D-alaninate], the midpoint of inhibition, the IC50, lay at 400 nM.

For `C[C@@H](Nc1ccc2c(-c3ccc(F)cc3Cl)cc(=O)oc2c1)C(=O)N1CCCCC1` [Example 27, (R)-4-(2-chloro-4-fluorophenyl)-7-((1-oxo-1-(piperidin-1-yl)propan-2-yl)amino)-2H-chromen-2-one], the IC50 was 100 nM.

In the case of `C[C@@H](Nc1ccc2c(-c3ccc(F)cc3Cl)cc(=O)oc2c1)C(=O)N(C)C` [Example 28, (R)-2-((4-(2-chloro-4-fluorophenyl)-2-oxo-2H-chromen-7-yl)amino)-N,N-dimethylpropanamide], the IC50 stood at 800 nM.

In the case of `COc1ccccc1-c1cc(=O)oc2cc(NC(C)=O)ccc12` [Example 29, N-(4-(2-methoxyphenyl)-2-oxo-2H-chromen-7-yl)acetamide], the IC50 is > 100000 nM.

Turning to `COc1ccccc1-c1cc(=O)oc2cc(NC(=O)C(C)C)ccc12` [Example 30, N-(4-(2-methoxyphenyl)-2-oxo-2H-chromen-7-yl) isobutyramide], the IC50 was > 100000 nM.

As for `CN(C)c1ccc2c(-c3ccc(F)cc3Cl)cc(=O)oc2c1` [Example 31, 4-(2-chloro-4-fluorophenyl)-7-(dimethylamino)-2H-chromen-2-one], half-maximal inhibition (IC50) required 400 nM.

Consider `CC(=O)Nc1ccc2c(-c3ccccc3C)cc(=O)oc2c1` [Example 32, N-(2-oxo-4-(o-tolyl)-2H-chromen-7-yl)acetamide], for which the IC50 was 400 nM.

`Cc1ccccc1-c1cc(=O)oc2cc(NC(=O)C(C)C)ccc12` [Example 33, N-(2-oxo-4-(o-tolyl)-2H-chromen-7-yl) isobutyramide] had an IC50 of 300 nM.

`Cc1ccccc1-c1cc(=O)oc2cc(C(=O)N(C)C)ccc12` [Example 34, N,N-dimethyl-2-oxo-4-(o-tolyl)-2H-chromene-7-carboxamide] showed an IC50 of 2000 nM.

Compound `Cc1ccccc1-c1cc(=O)oc2cc(C(=O)Nc3ccccc3)ccc12` [Example 35, 2-oxo-N-phenyl-4-(o-tolyl)-2H-chromene-7-carboxamide] yielded an IC50 of 2000 nM.

`Cc1ccccc1-c1cc(=O)oc2cc(C(=O)NC3CCCC3)ccc12` [Example 36, N-cyclopentyl-2-oxo-4-(o-tolyl)-2H-chromene-7-carboxamide]: the IC50 turned out to be 2000 nM.

In turn, `Cc1ccccc1-c1cc(=O)oc2cc(C(=O)N3CCCCC3)ccc12` [Example 37, 7-(piperidine-1-carbonyl)-4-(o-tolyl)-2H-chromen-2-one] displayed an IC50 of 1000 nM.

The compound `O=C(OCc1ccc2c(-c3ccc(F)cc3Cl)cc(=O)oc2c1)N1CCCCC1` [Example 38, (4-(2-chloro-4-fluorophenyl)-2-oxo-2H-chromen-7-yl)methyl piperidine-1-carboxylate] displayed an IC50 of 600 nM.

As to `Cc1ccc2c(-c3ccccc3C)cc(=O)oc2c1` [Example 39, 7-methyl-4-(o-tolyl)-2H-chromen-2-one], the IC50 worked out at 700 nM.
